# Source: paper PMC9229817, “Synthesis of novel isoxazole–carboxamide derivatives as promising agents for melanoma and targeted nano-emulgel conjugate for improved cellular permeability” (BMC Chemistry, 2022)
# Where “and” joins values, the source holds several entries; their conditions need not be identical. Equal entries are not always repeated. Where two headings read alike, the source gives them in different places.
# How the values were obtained:
# Hek293t = test: MTS assay, normal cell line Hek293t; format: cell-based; settings: 24 h treatment
# Experimental: (§1) Hepatocellular carcinoma (Hep3B and HepG2), cervical adenocarcinoma (HeLa), breast carcinoma (MCF-7), melanoma (B16F1), colorectal adenocarcinoma (Caco-2), and colon adenocarcinoma (Colo205), as well as human hepatic stellate (LX-2) in addition to the normal cell line (Hek293T), were used as cancer and normal cell lines and were cultured in RPMI-1640 media and supplemented with 10.0% fetal bovine serum, 1.0% l-glutamine and 1.0% Penicillin/Streptomycin antibiotics. After that, the cells matured in a moist atmosphere with 5.0% CO2 at 37 °C. In a 96-well plate, the cells were seeded at 2.5 × 10^4 cells/well. After 72 h, the cells were confluent, the media was changed, and then the cells were incubated with various concentrations (300, 100, 50, 10, and 1 µM), as well as lower concentrations (500, 100, and 50 nM) were used, especially for compound 2e against the B16-F1 cancer cell line to calculate accurate IC50 values for the evaluated compounds (2a–2f) for 24 h. The viability of cells was assessed by the Cell Tilter 96® Aqueous One Solution Cell Proliferation (MTS) Assay according to the manufacturer’s procedures (Promega Corporation, Madison, WI). However, at the end of the treatment, about 20 μl/100 μl of MTS solution/media was added to each well and for 2 h, they were incubated at 37 °C. Finally, the absorbance was measured at 490 nm.
# MCF-7 = test: MTS assay, MCF-7 breast carcinoma cells; format: cell-based, Human
# Experimental: as §1
# CaCo-2 = test: MTS assay, CaCo-2 colorectal adenocarcinoma cells; format: cell-based
# Experimental: as §1
# B16F1 [1] = test: MTS assay, B16F1 melanoma cells; format: cell-based; settings: for IC50: MTS, 24 h treatment
# Experimental: as §1
# HeLa = test: MTS assay, HeLa cervical adenocarcinoma cells; format: cell-based, Human; settings: 24 h treatment
# Experimental: as §1
# HepG2 = test: MTS assay, HepG2 hepatocellular carcinoma cells; format: cell-based; settings: for IC50: MTS, 24 h treatment; for viability at 50 µM: read-out: Cell viability percentage, HepG2
# Experimental: as §1
# Hep3B = test: MTS assay, Hep3B hepatocellular carcinoma cells; format: cell-based; settings: 24 h treatment
# Experimental: as §1
# Colo205 = test: MTS assay, Colo205 colon adenocarcinoma cells; format: cell-based; settings: for IC50: MTS, 24 h treatment; for viability at 50 µM: COLO 205, read-out: Cell viability percentage, Colo205
# Experimental: as §1
# [2] = test system: B16F1, Colo205, HepG2, and HeLa cancer cell lines; test: MTS assay, IC50 range over a panel of cancer cell lines; format: cell-based
# Experimental: as §1
# [3] = test system: human hepatic stellate cell (HSC) line LX-2; test: Anti-fibrotic activity, MTS viability of LX-2 cells; format: cell-based; settings: 1 µM
# Experimental: Hepatocellular carcinoma (Hep3B and HepG2), cervical adenocarcinoma (HeLa), breast carcinoma (MCF-7), melanoma (B16F1), colorectal adenocarcinoma (Caco-2), and colon adenocarcinoma (Colo205), as well as human hepatic stellate (LX-2) in addition to the normal cell line (Hek293T), were used as cancer and normal cell lines and were cultured in RPMI-1640 media and supplemented with 10.0% fetal bovine serum, 1.0% l-glutamine and 1.0% Penicillin/Streptomycin antibiotics. After that, the cells matured in a moist atmosphere with 5.0% CO2 at 37 °C. In a 96-well plate, the cells were seeded at 2.5 × 10^4 cells/well. […] The viability of cells was assessed by the Cell Tilter 96® Aqueous One Solution Cell Proliferation (MTS) Assay according to the manufacturer’s procedures (Promega Corporation, Madison, WI). […] Finally, the absorbance was measured at 490 nm.
# To explore the anti-fibrotic effects of these compounds on human hepatic stellate cell (HSC) line LX-2, the viability of LX-2 cells following various compounds' treatment was determined by the MTS assay.
# B16F1 [4] = test: MTS assay, B16F1 melanoma cells; format: cell-based; settings: compound versus its nano-emulgel at 1, 0.5, 0.1, 0.05, and 0.01 µM
# [5] = Homo sapiens, MCF7, 24 h treatment
# [6] = Homo sapiens, Caco-2, 24 h treatment
IC50 (MCF-7; [5]) [µM],IC50 (CaCo-2; [6]) [µM],"IC50 (B16F1 [1]; Mus musculus, B16-F1) [µM]","IC50 (HeLa; Homo sapiens, HeLa) [µM]","IC50 (HepG2; Homo sapiens, HepG2) [µM]","IC50 (Hep3B; Homo sapiens, Hep3B) [µM]","IC50 (Colo205; Homo sapiens, COLO 205, 24 h) [µM]",IC50 (Colo205) [µM],IC50 (MCF-7; 24 h treatment) [µM],IC50 (CaCo-2; 24 h treatment) [µM],IC50 (B16F1 [1]) [µM],IC50 (HeLa) [µM],IC50 (HepG2) [µM],IC50 (Hep3B) [µM],Compound,"IC50 (Hek293t; Homo sapiens, HEK-293T) [µM]",IC50 (Hek293t) [µM],further results
> 200,> 200,39.8 ± 1.45,> 200,37.9 ± 2.07,> 200,216.4 ± 1.58,,,,,,,,"CSc1ccc(NC(=O)c2c(-c3ccccc3)noc2C)cc1 [2d, 5-Methyl-N-(4-(methylthio)phenyl)-3-phenylisoxazole-4–Carboxamide]",> 200,,melting point: 144 to 146 °C
> 200,129 ± 2.47,29.7 ± 2.12,40.8 ± 1.25,7.55 ± 0.79,> 200,9.18,9.18 ± 0.88,,,,,,,"COc1cc(NC(=O)c2c(-c3ccccc3)noc2C)c(OC)cc1Cl [2a, N-(4–Chloro-2,5-dimethoxyphenyl)-5-methyl-3-phenylisoxazole-4–Carboxamide]",2.54 ± 1.4,,"IC50 ([2]; range over five cancer cell lines, read-out: IC50 range on five cancer cell lines): 7.54 to 129 µM; IC50 ([2]; range over four cancer cell lines, read-out: IC50 range against B16F1, Colo205, HepG2, and HeLa): 7.55 to 40.9 µM; viability at 50 µM (HepG2; Homo sapiens, HepG2): 29.2%; viability at 50 µM (Colo205; Homo sapiens): 39.4%"
,,,,,,,75.4 ± 2.41,> 200,> 200,12.7 ± 1.01,> 200,38.4 ± 1.07,54.6 ± 2.11,"Cc1onc(-c2ccccc2)c1C(=O)Nc1ccc(-c2cccs2)cc1 [2f, 5-Methyl-3-phenyl-N-(4-(thiophen-2-yl)phenyl) isoxazole-4–Carboxamide]",,7.91 ± 0.61,"Cellular viability of LX-2 [3]: 66.55%; Cell viability percentage, B16F1 (B16F1 [1]; 50 µM): 34.03%"
,,0.056,,,,,,,,,,,,"COc1cccc2c1C(=O)c1c(O)c3c(c(O)c1C2=O)C[C@@](O)(C(=O)CO)C[C@@H]3O[C@H]1C[C@H](N)[C@H](O)[C@H](C)O1 [Dox, Doxorubicin, reference compound]",,,"viability at 50 µM (B16F1 [1]; Mus musculus, B16-F1, 50 µM, read-out: Cell viability percentage, B16F1): 21.8%; viability at 50 µM (HepG2; Homo sapiens, HepG2): 9.46%; viability at 50 µM (Colo205; Homo sapiens): 9.89%"
,,,,,,,,,,,,,,O=c1[nH]cc(F)c(=O)[nH]1 [5-FU],,,Cellular viability of LX-2 [3]: 95% and 94.64%
,,,,,,,> 200,> 200,> 200,0.079,> 200,> 200,> 200,"Cc1onc(-c2ccccc2)c1C(=O)Nc1ccc(OC(F)(F)F)cc1 [2e, 5-Methyl-3-phenyl-N-(4-(trifluoromethoxy)phenyl) isoxazole-4–Carboxamide]",,190 ± 2.67,"IC50 (B16F1 [4]): 79 nM; Cell viability percentage, B16F1 (B16F1 [1]; 50 µM): 18.42%"
> 200,> 200,21.1 ± 0.78,> 200,120 ± 2.19,> 200,183 ± 2.05,,,,,,,,"COc1ccccc1Oc1ccc(NC(=O)c2c(-c3ccccc3)noc2C)cc1 [2c, N-(4-(2-Methoxyphenoxy)phenyl)-5-methyl-3-phenylisoxazole-4–Carboxamide]",20.2 ± 1.32,,melting point: 179 to 180 °C
,,,,,,,> 200,> 200,> 200,42.9 ± 1.55,> 200,53.6 ± 2.04,> 200,"Cc1onc(-c2ccccc2)c1C(=O)Nc1cccc(C(F)(F)F)c1 [2b, 5-Methyl-3-phenyl-N-(3-(trifluoromethyl)phenyl) isoxazole-4–Carboxamide]",,148 ± 2.74,
